Measured values published in ChEMBL document CHEMBL1201862, “PubChem BioAssay data set” (2004).
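These data come from cells grown in 96-well plates and exposed to compound for 48 hours at five concentrations. The concentration for 50% growth inhibition is given as GI50.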 Activity calls are given as the source filed them. Rule as the data show it: active = GI50 up to about 1.1 µM and inactive = higher.

Tests used:
Assay in all cases: NCI anticancer screen, dose series, 48 h
[1] = system: CAKI-1
[2] = system: UACC-257
[3] = system: HL-60
[4] = system: UACC-62
[5] = system: RXF 393
[6] = system: ACHN
[7] = system: CCRF-CEM
[8] = system: COLO 205
[9] = system: OVCAR-3
[10] = system: DU-145
[11] = system: SF-295
[12] = system: SR
[13] = system: SNB-75
[14] = system: SK-MEL-5
[15] = system: HOP-62
[16] = system: SK-MEL-2
[17] = system: SK-MEL-28
[18] = system: IGROV-1
[19] = system: SF-539
[20] = system: HCC 2998

Row | SMILES | GI50 [1] | GI50 [2] | GI50 [3] | GI50 [4] | GI50 [5] | GI50 [6] | GI50 [7] | GI50 [8] | GI50 [9] | GI50 [10] | GI50 [11] | GI50 [12] | GI50 [13] | GI50 [14] | GI50 [15] | GI50 [16] | GI50 [17] | GI50 [18] | GI50 [19] | GI50 [20]
1 | Cc1nc2cc([N+](=O)[O-])ccc2c(NCCCN(C)C)c1C | 20.3 µM (inactive) | 5.45 µM (inactive) | 28.8 µM (inactive) | 15.6 µM (inactive) | 11.1 µM (inactive) | 20 µM (inactive) | 28.9 µM (inactive) | 2.56 µM (inactive) | 6.31 µM (inactive) | 21.7 µM (inactive) | 17.3 µM (inactive) | 4.45 µM (inactive) | 20.7 µM (inactive) | 10.1 µM (inactive) | 10.9 µM (inactive) | 10.5 µM (inactive) | 50.5 µM (inactive) | 3.22 µM (inactive) | 13.7 µM (inactive) | –
2 | c1ccc(NN=C(c2ccccn2)c2ccccn2)nc1 | 0.0757 µM (active) | 0.187 µM (active) | – | 0.153 µM (active) | 0.583 µM (active) | 0.159 µM (active) | 0.0224 µM (active) | < 0.01 µM (active) | < 0.0217 µM (active) | 0.331 µM (active) | 0.423 µM (active) | – | 2.56 µM (inactive) | 0.0893 µM (active) | 0.346 µM (active) | 0.49 µM (active) | 0.869 µM (active) | 0.0153 µM (active) | 1.71 µM (inactive) | 2.23 µM (inactive)
3 | CSCCC(NC(=O)Cc1ccc(C(=O)c2ccccc2)cc1)C(=O)O (stereo unspecified) | > 100 µM (inactive) | > 100 µM (inactive) | > 100 µM (inactive) | > 100 µM (inactive) | > 100 µM (inactive) | > 100 µM (inactive) | > 100 µM (inactive) | > 100 µM (inactive) | > 100 µM (inactive) | > 100 µM (inactive) | > 100 µM (inactive) | – | > 100 µM (inactive) | > 100 µM (inactive) | > 100 µM (inactive) | > 100 µM (inactive) | > 100 µM (inactive) | > 100 µM (inactive) | > 100 µM (inactive) | > 100 µM (inactive)
4 | O=C(C(=O)c1cc2ccccc2[nH]1)c1cc2ccccc2[nH]1 | 234 µM (inactive) | > 204 µM (inactive) | 195 µM (inactive) | > 347 µM (inactive) | 91.4 µM (inactive) | > 347 µM (inactive) | > 247 µM (inactive) | > 347 µM (inactive) | 12.8 µM (inactive) | – | > 347 µM (inactive) | 12.3 µM (inactive) | > 347 µM (inactive) | > 301 µM (inactive) | > 183 µM (inactive) | > 347 µM (inactive) | 149 µM (inactive) | > 347 µM (inactive) | > 347 µM (inactive) | > 347 µM (inactive)
5 | COc1ccc(CN[C@H]2CCc3cc(OC)c(OC)c(OC)c3-c3ccc(SC)c(=O)cc32)c(OC)c1OC | 0.0452 µM (active) | 0.0811 µM (active) | 0.0266 µM (active) | 0.023 µM (active) | 0.0181 µM (active) | 0.063 µM (active) | 0.0356 µM (active) | 0.0234 µM (active) | 0.0235 µM (active) | – | 0.0296 µM (active) | 0.0167 µM (active) | 0.0184 µM (active) | 0.0326 µM (active) | 0.0319 µM (active) | 0.0282 µM (active) | 0.0443 µM (active) | 0.135 µM (active) | 0.0211 µM (active) | 0.0202 µM (active)
6 | O=C1C(Cl)=C(NCCN2CCOCC2)C(=O)c2c(O)ccc(O)c21 | 1.74 µM (inactive) | 2.11 µM (inactive) | – | 1.48 µM (inactive) | – | 2.7 µM (inactive) | 1.56 µM (inactive) | 1.5 µM (inactive) | 2.49 µM (inactive) | 1.71 µM (inactive) | 1.87 µM (inactive) | – | 1.71 µM (inactive) | 1.09 µM (active) | 1.92 µM (inactive) | – | 1.48 µM (inactive) | 1.88 µM (inactive) | 1.75 µM (inactive) | 1.89 µM (inactive)
7 | c1ccc(-c2nnn3c2NC2=C(CCCC2)C3c2ccccc2)cc1 (stereo unspecified) | 18.2 µM (inactive) | 21.2 µM (inactive) | 18.5 µM (inactive) | 16.4 µM (inactive) | 17.1 µM (inactive) | 1.47 µM (inactive) | 12.3 µM (inactive) | 16.5 µM (inactive) | 18.4 µM (inactive) | 17.7 µM (inactive) | 20.7 µM (inactive) | 13.5 µM (inactive) | – | 14.2 µM (inactive) | 16.4 µM (inactive) | 16.2 µM (inactive) | – | 17.5 µM (inactive) | 19.1 µM (inactive) | –
8 | Cc1ncc([N+](=O)[O-])n1CCNS(=O)(=O)CCCn1ncnc1[N+](=O)[O-] | > 100 µM (inactive) | > 100 µM (inactive) | > 100 µM (inactive) | > 100 µM (inactive) | > 100 µM (inactive) | > 100 µM (inactive) | > 100 µM (inactive) | > 100 µM (inactive) | > 100 µM (inactive) | > 100 µM (inactive) | > 100 µM (inactive) | > 100 µM (inactive) | > 100 µM (inactive) | > 100 µM (inactive) | > 100 µM (inactive) | > 100 µM (inactive) | > 100 µM (inactive) | > 100 µM (inactive) | > 100 µM (inactive) | –
